For one assay, the target named is T1, 15-LOX (Homo sapiens, UniProt O15296).
T1 construct: purchased Cayman Chemical 10011263
T1 sequence (O15296 1-676): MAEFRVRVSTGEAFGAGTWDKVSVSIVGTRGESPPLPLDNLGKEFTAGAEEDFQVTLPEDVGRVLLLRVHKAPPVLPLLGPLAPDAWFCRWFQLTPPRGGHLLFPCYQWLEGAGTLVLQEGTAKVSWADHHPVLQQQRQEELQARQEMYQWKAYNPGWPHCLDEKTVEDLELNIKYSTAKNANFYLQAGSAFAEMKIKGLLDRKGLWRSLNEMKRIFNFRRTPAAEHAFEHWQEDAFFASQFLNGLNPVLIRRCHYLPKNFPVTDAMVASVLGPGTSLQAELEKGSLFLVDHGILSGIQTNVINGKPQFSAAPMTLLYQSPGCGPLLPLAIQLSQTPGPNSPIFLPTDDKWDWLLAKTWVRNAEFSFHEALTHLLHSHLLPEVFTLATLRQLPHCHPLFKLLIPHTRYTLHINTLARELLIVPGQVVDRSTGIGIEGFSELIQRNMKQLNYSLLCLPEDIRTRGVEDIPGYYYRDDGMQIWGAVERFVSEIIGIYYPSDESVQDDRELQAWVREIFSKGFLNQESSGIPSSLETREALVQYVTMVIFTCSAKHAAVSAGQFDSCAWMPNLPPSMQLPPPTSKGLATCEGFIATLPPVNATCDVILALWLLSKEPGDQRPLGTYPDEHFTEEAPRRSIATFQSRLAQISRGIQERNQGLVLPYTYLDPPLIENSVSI
The experiment in a line: 15-LOX inhibition assay (human recombinant enzyme kit). Format: biochemical. The procedure:
Stock solutions were freshly prepared before use, and buffer solution (0.1 M Tris-HCl, PH, 7.4) was used. 10 µL of each compound were prepared, dissolved in the least amount of DMSO and diluted with the stock solution to be in concentrations of (0.001, 0.1, 1, 5, 10 µM) in a final volume of 210 mL. […] Substrate concentration was ranged from 5 to 50 µM. Substrate concentrations (5, 10, 20, 30, 40, 50 µM) were monitored in triplicate for each sample [37]. Doxorubicin was used as a positive control.

The target of a further assay is T2, 5-LOX (Homo sapiens, UniProt P09917).
T2 construct: purchased Cayman Chemical 60,402
T2 sequence (P09917 1-674): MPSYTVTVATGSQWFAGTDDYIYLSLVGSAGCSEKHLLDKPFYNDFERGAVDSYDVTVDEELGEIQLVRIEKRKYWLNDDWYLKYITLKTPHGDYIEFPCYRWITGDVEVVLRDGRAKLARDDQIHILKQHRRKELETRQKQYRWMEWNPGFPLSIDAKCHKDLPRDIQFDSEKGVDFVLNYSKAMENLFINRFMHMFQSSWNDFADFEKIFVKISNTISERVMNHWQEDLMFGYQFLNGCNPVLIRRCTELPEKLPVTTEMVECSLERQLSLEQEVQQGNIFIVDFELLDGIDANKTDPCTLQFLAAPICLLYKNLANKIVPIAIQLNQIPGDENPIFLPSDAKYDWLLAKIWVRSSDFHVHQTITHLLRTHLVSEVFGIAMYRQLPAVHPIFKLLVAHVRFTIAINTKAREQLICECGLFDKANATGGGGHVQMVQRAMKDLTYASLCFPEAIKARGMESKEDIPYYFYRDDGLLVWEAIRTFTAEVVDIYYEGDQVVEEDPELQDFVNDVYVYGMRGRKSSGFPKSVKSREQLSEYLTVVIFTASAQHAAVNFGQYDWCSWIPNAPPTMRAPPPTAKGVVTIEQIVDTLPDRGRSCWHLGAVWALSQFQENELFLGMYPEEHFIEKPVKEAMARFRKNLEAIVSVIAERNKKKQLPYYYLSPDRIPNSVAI
Briefly: 5-LOX inhibition assay (human recombinant enzyme kit). Format: biochemical. The procedure: The ability of the isolated compounds 12, 13, and 19 to inhibit 5-LOX and 15-LOX enzymes (IC50 and Ki values, µM) was determined using human recombinant enzyme assay kits (catalog no 60,402 and 10011263, Cayman Chemical, Ann Arbor, MI, USA) following manufacturer’s specifications. Stock solutions were freshly prepared before use, and buffer solution (0.1 M Tris-HCl, PH, 7.4) was used. 10 µL of each compound were prepared, dissolved in the least amount of DMSO and diluted with the stock solution to be in concentrations of (0.001, 0.1, 1, 5, 10 µM) in a final volume of […]. The kinetic parameters for both 5-LOX and 15-LOX were determined by measuring the increase in absorbance at 238 nm in an Agilent 8453 diode array spectrophotometer (Agilent Technologies, Santa Clara, CA, USA). Substrate concentration was ranged from 5 to 50 µM. Substrate concentrations (5, 10, 20, 30, 40, 50 µM) were monitored in triplicate for each sample [37]. Doxorubicin was used as a positive control.

Where [1] appears, read: in vitro, human recombinant enzyme.

Each structure is given as a SMILES string.

As usually defined, the Ki is a measure of affinity in units of concentration, obtained from inhibition or displacement. For orientation: IC50 means the point on the concentration scale where inhibition reaches its midpoint. Consider `CCCCC/C=C\C/C=C\C/C=C\C/C=C\CCCCOCC(O)CO[C@H]1O[C@H](CO)[C@@H](O)[C@H](O)[C@H]1O` (stereo partly drawn) [compound 19, 1-O-arachidonyl-3-O-(α-D-glucopyranosyl) glycerol], for which the Ki was found to be 4.2 ± 0.1 µM at 15-LOX (in vitro inhibition constant) and 1.4 ± 0.2 µM at 5-LOX (in vitro inhibition constant). The IC50 amounted to 6.7 ± 0.3 µM at 15-LOX (setting [1]) and 2.1 ± 0.4 µM on 5-LOX (setting [1]).

The values above are taken from article PMC8069941, “Potential Anticancer Lipoxygenase Inhibitors from the Red Sea-Derived Brown Algae Sargassum cinereum: An In-Silico-Supported In-Vitro Study” (Antibiotics, 2021).
